One data set has as its system Ba/F3 cells KRAS G12C. In words: Ba/F3 proliferation assay (KRAS G12C). Particulars: 72 h, AlamarBlue viability. It is filed as cell-based. Summed up: (§1)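 Ba/F3 cells retrovirally transduced with KRAS G12 mutant, puromycin-selected, grown IL-3-independent; seeded in RPMI-1640 + 10% FCS without IL-3. Logarithmic compound dose series in duplicate, 72 h at 37° C., AlamarBlue fluorescence as % of DMSO control; IC50 from four-parameter non-linear regression.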
(Alamar Blue is a resazurin reagent that responds to reducing activity.)

In the next data set the test system is Ba/F3 cells KRAS G12V. In words: Ba/F3 proliferation assay (KRAS G12V). Particulars: 72 h, AlamarBlue viability. It is filed as cell-based. Summed up:
as §1

The next data set deals with Ba/F3 cells KRAS G12D. In words: Ba/F3 proliferation assay (KRAS G12D). It counts as cell-based. Particulars: 72 h, AlamarBlue viability. Summed up:
as §1

In data set [1] the target is KRAS (G12D)::SOS1 protein-protein interaction (Homo sapiens (Human), UniProt P01116, G12D). The data set can be described thus: KRAS::SOS1 AlphaScreen binding assay (KRAS G12D). Particulars: GDP. Summed up:
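AlphaScreen assay with KRAS G12D (1-169, 6His/avi-tagged, 10 nM), GST-SOS1 564-1049 (5 nM) and GDP (10 μM) in PBS, 0.1% BSA, 0.05% Tween 20; compound up to 100 μM top concentration, eleven fivefold dilutions in duplicate. After 30 min, glutathione acceptor and streptavidin donor beads (10 μg/mL each) were added and signal read after a further 60 min at room temperature in the dark; IC50 from 4-parameter logistic fit.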
Background: Alpha assays give light when donor and acceptor beads are brought close together.

Data set [2] can be described thus: Solubility measurement (DMSO solution precipitation method). It is filed as physicochemical. Particulars: from DMSO stock. Summed up: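 A 10 mM DMSO stock was diluted to 250 μM final in McIlvaine buffer at pH 4.5 or 6.8, then shaken 24 h at ambient temperature. After filtering off precipitate, filtrate concentration was quantified by LC-UV against a fully dissolved reference in acetonitrile/water (1:1).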

KRAS (G12D)::SOS1 protein-protein interaction, sequence (P01116 other isoform, or with tags, fused parts or gaps G12D): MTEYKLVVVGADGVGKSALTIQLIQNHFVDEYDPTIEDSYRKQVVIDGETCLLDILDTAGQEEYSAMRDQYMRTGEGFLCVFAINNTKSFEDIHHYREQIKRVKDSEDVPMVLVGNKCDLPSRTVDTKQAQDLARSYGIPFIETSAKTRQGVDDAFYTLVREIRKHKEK

Take `C[C@H](Oc1nc(-c2noc3c2CCC[C@@]32CCCc3sc(N)c(C#N)c32)nc2c1CC[C@]21CNCCO1)[C@@H]1C[C@@H](F)CN1C` [II-20]: the IC50 in the data set with Ba/F3 cells KRAS G12C came out at 181 nM; in the data set with Ba/F3 cells KRAS G12V, 96 nM; in the data set with Ba/F3 cells KRAS G12D, 45 nM; in data set [1], 1 nM. Further, the “solubility pH 4.5” value in data set [2] (McIlvaine buffer pH 4.5, 24 h) was more than 156 μg/ml. In data set [2] (McIlvaine buffer pH 6.8, 24 h), the “solubility pH 6.8” value is more than 156 μg/mL.

As a reminder, the IC50 is the concentration that gives 50% inhibition.

Source of the values: US20250019385A1, “SPIROCYCLIC ANNULATED 2-AMINO-3-CYANO THIOPHENES AND DERIVATIVES FOR THE TREATMENT OF CANCER” (Boehringer Ingelheim International GmbH, priority 2023, published 2025).
